Reference: BindingDB's records for doi:10.7270/Q2319T8T (The Scripps Research Institute Molecular Screening Center, 2007)

Target: Steroidogenic factor 1 (Homo sapiens, UniProt Q13285)
Experiment: SF-1 inhibitor potency, dose response, cell-based, CHO-K1, Gal4-SF-1 LBD, luciferase luminescence (AID 600)
[1] = inactive by the depositor's call

Steroidogenic factor 1, sequence (Q13285 whole entry, the tested form may be a part): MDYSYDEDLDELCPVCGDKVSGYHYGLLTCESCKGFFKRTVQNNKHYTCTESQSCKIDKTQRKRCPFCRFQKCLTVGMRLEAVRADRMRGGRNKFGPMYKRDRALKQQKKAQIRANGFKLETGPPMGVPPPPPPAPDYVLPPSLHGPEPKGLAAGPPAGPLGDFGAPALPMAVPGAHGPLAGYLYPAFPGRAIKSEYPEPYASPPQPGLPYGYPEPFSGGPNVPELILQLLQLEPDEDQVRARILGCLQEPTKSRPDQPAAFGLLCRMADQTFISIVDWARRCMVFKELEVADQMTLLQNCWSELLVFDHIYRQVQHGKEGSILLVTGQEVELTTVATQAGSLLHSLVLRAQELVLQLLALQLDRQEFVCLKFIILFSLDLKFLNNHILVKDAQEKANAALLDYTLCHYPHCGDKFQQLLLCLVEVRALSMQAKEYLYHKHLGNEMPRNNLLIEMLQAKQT

| SMILES | IC50 | IC50 [1] |
| --- | --- | --- |
| COC(=O)c1ccc(-n2c(O)cc(N3CCC(n4c(=O)[nH]c5ccccc54)CC3)c2O)cc1 [4-[2,5-dioxo-3-[4-(2-oxo-3H-benzimidazol-1-yl)-1-piperidinyl]-1-pyrrolidinyl]benzoic acid methyl ester] | > 99 µM | – |
| CCCCOc1ccc(OC(=O)c2cccnc2)cc1 [(4-butoxyphenyl) pyridine-3-carboxylate] | – | 15.4 µM |
| CN1/C(=C/C(=O)c2nc(S(C)(=O)=O)ncc2Cl)C(C)(C)c2ccccc21 | – | 15.5 µM |
| CCOC(=O)C1CCN(Cc2ccc(O)c3ncccc23)CC1 [1-(8-Hydroxy-quinolin-5-ylmethyl)-piperidine-4-carboxylic acid ethyl ester] | 9.85 µM | – |
| COc1cc(C2c3ccc(N)cc3OC(=N)C2C#N)cc(OC)c1OC (configuration not stated) [2,7-bis(azanyl)-4-(3,4,5-trimethoxyphenyl)-4H-chromene-3-carbonitrile] | 7.92 µM | – |
| O=S(=O)(NCc1ccncc1)c1ccc(Br)s1 [5-bromanyl-N-(pyridin-4-ylmethyl)thiophene-2-sulfonamide] | 0.108 µM | – |
| CCCCN(CCCC)S(=O)(=O)c1ccc(C(=O)Nc2nnc(CSC)o2)cc1 [4-(dibutylsulfamoyl)-N-[5-(methylsulfanylmethyl)-1,3,4-oxadiazol-2-yl]benzamide] | – | 16.5 µM |
| Cc1csc(NC(=O)Cc2nn(C)c(=O)c3ccccc23)n1 [2-(3-methyl-4-oxidanylidene-phthalazin-1-yl)-N-(4-methyl-1,3-thiazol-2-yl)ethanamide] | – | 34.3 µM |
| CCOc1ccc(-c2noc(CCC(=O)O)n2)cc1 [3-(3-p-phenetyl-1,2,4-oxadiazol-5-yl)propionic acid] | 3.89 µM | – |
| CCOC(=O)C(C)Oc1cccc2c(=O)n(CC(=O)Nc3ccc4c(c3)OCCO4)ccc12 (configuration not stated) | 0.837 µM | – |
| CCOc1ccc(-c2nc(CSCC(=O)NCCN3CCOCC3)c(C)o2)cc1 [2-({[2-(4-ethoxyphenyl)-5-methyl-1,3-oxazol-4-yl]methyl}thio)-N-(2-morpholin-4-ylethyl)acetamide] | 4.36 µM | – |
| Oc1c(CN2CCCCC2)cc(COCc2ccccc2)c2cccnc12 [5-(benzoxymethyl)-7-(piperidinomethyl)quinolin-8-ol] | – | 27.1 µM |
| CC(C)Cn1c(N)c(C(=O)CSc2ccc3c(c2)OCCO3)c(=O)n(C)c1=O [6-amino-5-[2-(2,3-dihydro-1,4-benzodioxin-6-ylsulfanyl)acetyl]-3-methyl-1-(2-methylpropyl)pyrimidine-2,4-dione] | – | 13.4 µM |
| O=S(=O)(C/C(=C/CO)S(=O)(=O)c1ccccc1)c1ccccc1 [(Z)-3,4-bis(benzenesulfonyl)but-2-en-1-ol] | – | 18 µM |
| CCCCOc1ccc(S(=O)(=O)Nc2cccnc2)cc1 [4-butoxy-N-(3-pyridinyl)benzenesulfonamide] | – | 25 µM |
| c1ccc(-c2cn3nc(-c4ccccc4)sc3n2)cc1 [2,6-diphenylimidazo[2,1-b][1,3,4]thiadiazole] | 2.02 µM | – |

Further lines, results first:

| IC50 | IC50 [1] | SMILES |
| --- | --- | --- |
| > 99 µM | – | O=C(Nc1nc(-c2ccc(Cl)s2)cs1)c1ccncc1 [MLS000098514] |
| > 3.67 µM | – | COc1ccc(C(NC(C)=O)c2ccc3cccnc3c2O)c(OC)c1 (configuration not stated) [MLS000109349] |
| 0.315 µM | – | O=c1cc(N2CCN(c3cccc(Cl)c3)CC2)[nH]c(=O)n1C1CCCCC1 [MLS000094380] |
| 3.46 µM | – | c1ccc(-c2nc(N3CCCCCC3)c3ccccc3n2)nc1 [SMR000046752] |
| 2.1 µM | – | COc1nc(Nc2nc(O)c3ccccc3n2)nc2ccc(C)cc12 [SMR000108404] |
| 1.3 µM | – | CCCCS(=O)(=O)/C=C\C=C/S(=O)(=O)CCCC [SMR000020833] |
| > 3.67 µM | – | Cc1cc(C=Nn2cnnc2)c(C)n1-c1ccc(OCc2ccccc2F)cc1 [MLS000112180] |
| > 11 µM | – | CC1CCc2nc(NC(=O)c3ccco3)sc2C1 (configuration not stated) [MLS000063711] |
| 2.99 µM | – | O=c1cc(N2CCN(c3ccccc3)CC2)[nH]c(=O)n1C1CCCCC1 [MLS000094382] |
| – | 32.9 µM | COc1ccccc1OCC(=O)c1[nH]c(C)c(C(C)=O)c1C [MLS000053479] |
| 5.46 µM | – | CS(=O)(=O)c1nc(-c2cccs2)cc(C(F)(F)F)n1 [MLS000044645] |
